In patent US7476517B2, “Virus like particles, their preparation and their use preferably in pharmaceutical screening and functional genomics” (Evotec AG, priority 1999, dated 2009):

Target: T1, human ETA receptor (Homo sapiens, UniProt P25101)
T1 construct: Flag; made in house; host or cells: Sf9 insect cells co-infected with recombinant baculoviruses; VLPs pelleted from the culture supernatant
T1 sequence (P25101 21-427): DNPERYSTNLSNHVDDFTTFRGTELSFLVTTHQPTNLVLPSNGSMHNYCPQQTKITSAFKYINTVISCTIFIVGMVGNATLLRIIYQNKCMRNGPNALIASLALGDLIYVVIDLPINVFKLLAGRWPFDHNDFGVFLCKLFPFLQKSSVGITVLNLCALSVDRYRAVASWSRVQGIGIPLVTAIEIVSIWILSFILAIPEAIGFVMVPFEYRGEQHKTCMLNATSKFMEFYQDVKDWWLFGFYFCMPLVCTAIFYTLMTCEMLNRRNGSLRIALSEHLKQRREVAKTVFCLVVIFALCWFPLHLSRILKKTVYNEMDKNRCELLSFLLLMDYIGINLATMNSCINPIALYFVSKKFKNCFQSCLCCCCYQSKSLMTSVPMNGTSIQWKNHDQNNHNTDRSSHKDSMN
Assay: ETA receptor binding assay with FIDA analysis
Conditions: 1 μM non-labelled ligand; 2 nM TAMRA-labeled endothelin-1; membrane vesicles from CHO cells or VLPs from Sf9 cells; 30 minutes at room temperature
Description: After 30 minutes incubation at room temperature the mixture was analysed by FIDA using a beam scanner and 543 nm laser light for excitation.

| Compound | competition with TAMRA-labeled endothelin-1 for binding to the ETA receptor |
| --- | --- |
| endothelin-1 | competing ligand |
| C[C@H](N)C(=O)NCC(=O)N[C@H]1CSSC[C@@H](C(=O)O)NC(=O)[C@H](CO)NC(=O)[C@H]([C@@H](C)O)NC(=O)[C@H](Cc2ccccc2)NC(=O)[C@H]([C@@H](C)O)NC(=O)[C@H](CCCCN)NC(=O)[C@H](Cc2c[nH]c3ccccc23)NC(=O)[C@H](Cc2ccccc2)NC(=O)[C@H](Cc2ccccc2)NC(=O)[C@H](CC(N)=O)NC(=O)[C@H](CCCCN)NC1=O [somatostatin-14] | non-competing ligand |
| big endothelin-1 | non-competing ligand |
